Assay results: PubChem BioAssay AID330 (DTP/NCI, 2004)
Values joined by “and” are separate entries in the source; they are usually repeats but may differ in a detail not shown here. Identical values can stand only once. Toxic doses and inconclusive results are not listed. The calls were made as follows: active = survival T/C of 150% or more; inactive = T/C below 125% in these data.

Test system: P388 leukemia ip, CD2F1 mice, survival T/C
Test: NCI In Vivo Anticancer Drug Screen. Data for tumor model P388 Leukemia (intraperitoneal) in CD2F1 (CDF1) mice
Settings: endpoint: median survival time, higher = longer survival
Summary of the method: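 Mice carrying the transplanted tumor received test compound or vehicle. Survival was recorded in each group, and the value is the treated-group measurement divided by that of the vehicle-treated control group.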

Measured: T/C

COc1ccc(C2=NNC(=O)C3NC(=O)C(C#N)=C(C(=O)NN)C23c2ccc(OC)cc2)cc1 (stereo not drawn)
inactive: dose: 60.0 mg/kg/injection, schedule: Q01DX005 (ip), vehicle: saline with Tween-80 99 % of control | dose: 120.0 mg/kg/injection, schedule: Q01DX005 (ip), vehicle: saline with Tween-80 91 % of control | dose: 240.0 mg/kg/injection, schedule: Q01DX005 (ip), vehicle: saline with Tween-80 89 % of control

COc1ccc(Cl)cc1C
inactive: dose: 12.5 mg/kg/injection, schedule: Q01DX009 (ip), vehicle: distilled water + Tween-80 99 % of control | dose: 25.0 mg/kg/injection, schedule: Q01DX009 (ip), vehicle: distilled water + Tween-80 97 % of control | dose: 50.0 mg/kg/injection, schedule: Q01DX009 (ip), vehicle: distilled water + Tween-80 98 % of control | dose: 100.0 mg/kg/injection, schedule: Q01DX009 (ip), vehicle: distilled water + Tween-80 98 % of control | dose: 200.0 mg/kg/injection, schedule: Q01DX009 (ip), vehicle: distilled water + Tween-80 108 % of control | dose: 400.0 mg/kg/injection, schedule: Q01DX009 (ip), vehicle: distilled water + Tween-80 116 % of control

COC(=O)c1[c]([Sn]([CH3])([CH3])[CH3])n[n]([Sn]([CH3])([CH3])[CH3])c1C(=O)OC
inactive: dose: 6.25 mg/kg/injection, schedule: Q04DX003 (ip), vehicle: saline 98 % of control | dose: 12.5 mg/kg/injection, schedule: Q04DX003 (ip), vehicle: saline 98 % of control

CC1(C)CN(Cc2ccccc2)C2OC1N(Cc1ccccc1)CC2(C)C
inactive: dose: 50.0 mg/kg/injection, schedule: Q01DX009 (ip), vehicle: Klucel (hydroxypropylcellulose) (HPC) 102 % of control | dose: 100.0 mg/kg/injection, schedule: Q01DX009 (ip), vehicle: Klucel (hydroxypropylcellulose) (HPC) 99 % of control | dose: 200.0 mg/kg/injection, schedule: Q01DX009 (ip), vehicle: Klucel (hydroxypropylcellulose) (HPC) 96 % of control

CCN(CC)CCNc1ccc(C)c2sc3c(O)cccc3c(=O)c12
inactive: dose: 50.0 mg/kg/injection, schedule: Q01DX009 (ip), vehicle: saline with Tween-80 104 % of control | dose: 100.0 mg/kg/injection, schedule: Q01DX009 (ip), vehicle: saline with Tween-80 100 % of control | dose: 200.0 mg/kg/injection, schedule: Q01DX009 (ip), vehicle: saline with Tween-80 104 % of control

ClC1=C(Cl)C2(Cl)C3C(Cl)C(Cl)CC3C1(Cl)C2(Cl)Cl (stereo not drawn)
inactive: dose: 3.12 mg/kg/injection, schedule: Q01DX009 (ip), vehicle: saline + Tween-80 + alcohol 100 % of control and 101 % of control | dose: 6.25 mg/kg/injection, schedule: Q01DX009 (ip), vehicle: saline + Tween-80 + alcohol 107 % of control and 112 % of control | dose: 12.5 mg/kg/injection, schedule: Q01DX009 (ip), vehicle: saline + Tween-80 + alcohol 114 % of control and 87 % of control | dose: 25.0 mg/kg/injection, schedule: Q01DX009 (ip), vehicle: other 110 % of control and 89 % of control | dose: 25.0 mg/kg/injection, schedule: Q01DX009 (ip), vehicle: saline + Tween-80 + alcohol 103 % of control and 96 % of control | dose: 50.0 mg/kg/injection, schedule: Q01DX009 (ip), vehicle: other 110 % of control and 86 % of control and 98 % of control | dose: 100.0 mg/kg/injection, schedule: Q01DX009 (ip), vehicle: other 108 % of control and 93 % of control | dose: 200.0 mg/kg/injection, schedule: Q01DX009 (ip), vehicle: other 90 % of control

COc1cc2c(c(OC)c1OC)-c1ccc(N)c(=O)cc1[C@@H](NC(C)=O)CC2
inactive: dose: 0.5 mg/kg/injection, schedule: Q01DX010 (ip), vehicle: saline 109 % of control | dose: 1.0 mg/kg/injection, schedule: Q01DX010 (ip), vehicle: saline 118 % of control | dose: 3.12 mg/kg/injection, schedule: Q01DX009 (ip), vehicle: Klucel (hydroxypropylcellulose) (HPC) 86 % of control | dose: 6.25 mg/kg/injection, schedule: Q01DX009 (ip), vehicle: Klucel (hydroxypropylcellulose) (HPC) 108 % of control

Nc1ccc2cc3c(nc2n1)[nH]c1ccccc13
inactive: dose: 1.56 mg/kg/injection, schedule: Q01DX009 (ip), vehicle: saline with Tween-80 97 % of control | dose: 3.12 mg/kg/injection, schedule: Q01DX009 (ip), vehicle: saline with Tween-80 103 % of control | dose: 6.25 mg/kg/injection, schedule: Q01DX009 (ip), vehicle: saline with Tween-80 100 % of control | dose: 12.5 mg/kg/injection, schedule: Q01DX009 (ip), vehicle: saline with Tween-80 102 % of control | dose: 25.0 mg/kg/injection, schedule: Q01DX009 (ip), vehicle: saline with Tween-80 118 % of control

CC1C(=O)C23CCC4C5(C)CCCC4(C4OCCN4C5)C2CCC1C3 (stereo not drawn)
inactive: dose: 1.0 mg/kg/injection, schedule: Q01DX009 (ip), vehicle: Klucel (hydroxypropylcellulose) (HPC) 99 % of control | dose: 2.0 mg/kg/injection, schedule: Q01DX009 (ip), vehicle: Klucel (hydroxypropylcellulose) (HPC) 97 % of control | dose: 4.0 mg/kg/injection, schedule: Q01DX009 (ip), vehicle: Klucel (hydroxypropylcellulose) (HPC) 98 % of control | dose: 8.0 mg/kg/injection, schedule: Q01DX009 (ip), vehicle: Klucel (hydroxypropylcellulose) (HPC) 97 % of control

[I][Hg][CH]1CCC2CCCC1O2 (stereo not drawn)
inactive: dose: 12.5 mg/kg/injection, schedule: Q01DX009 (ip), vehicle: Klucel (hydroxypropylcellulose) (HPC) 105 % of control | dose: 25.0 mg/kg/injection, schedule: Q01DX009 (ip), vehicle: Klucel (hydroxypropylcellulose) (HPC) 102 % of control

CCCC(Sc1ccccc1)c1cc(OC)ccc1NC(C)=O (stereo not drawn)
inactive: dose: 100.0 mg/kg/injection, schedule: Q01DX001 (ip), vehicle: saline with Tween-80 100 % of control | dose: 200.0 mg/kg/injection, schedule: Q01DX001 (ip), vehicle: saline with Tween-80 100 % of control | dose: 400.0 mg/kg/injection, schedule: Q01DX001 (ip), vehicle: saline with Tween-80 93 % of control
